Experimental data taken from PubChem BioAssay (NCI).
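All cell lines were grown in 96-well plates and treated with compound for 48 hours. Here, GI50 denotes the concentration required for 50% inhibition of growth. The concentration for full growth arrest is given as TGI.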

Tests used:
Experiment in all cases: growth of human tumour cells (NCI), 48 h
SF-539 CNS = system: SF-539 CNS
IGROV1 ovarian = system: IGROV1 ovarian
MCF7 breast = system: MCF7 breast
OVCAR-4 ovarian = system: OVCAR-4 ovarian
HCC-2998 colon = system: HCC-2998 colon
OVCAR-8 ovarian = system: OVCAR-8 ovarian
SK-OV-3 ovarian = system: SK-OV-3 ovarian
A498 renal = system: A498 renal
NCI-H226 lung = system: NCI-H226 lung
HCT-15 colon = system: HCT-15 colon
HS 578T breast = system: HS 578T breast
UACC-257 melanoma = system: UACC-257 melanoma
SW-620 colon = system: SW-620 colon
LOX IMVI melanoma = system: LOX IMVI melanoma
HOP-92 NSCLC = system: HOP-92 NSCLC
BT-549 breast = system: BT-549 breast
786-0 renal = system: 786-0 renal
CCRF-CEM leukemia = system: CCRF-CEM leukemia
NCI-H460 lung = system: NCI-H460 lung
SF-295 CNS = system: SF-295 CNS
SK-MEL-28 melanoma = system: SK-MEL-28 melanoma
SK-MEL-2 melanoma = system: SK-MEL-2 melanoma
K-562 leukemia = system: K-562 leukemia
NCI-H522 lung = system: NCI-H522 lung
DU-145 prostate = system: DU-145 prostate
UO-31 renal = system: UO-31 renal
A549 NSCLC = system: A549 NSCLC
RPMI-8226 leukemia = system: RPMI-8226 leukemia
U251 CNS = system: U251 CNS
CAKI-1 renal = system: CAKI-1 renal
ACHN renal = system: ACHN renal
COLO 205 colon = system: COLO 205 colon
UACC-62 melanoma = system: UACC-62 melanoma
NCI-H23 lung = system: NCI-H23 lung
SNB-19 CNS = system: SNB-19 CNS
OVCAR-5 ovarian = system: OVCAR-5 ovarian
HOP-62 NSCLC = system: HOP-62 NSCLC
SF-268 CNS = system: SF-268 CNS
OVCAR-3 ovarian = system: OVCAR-3 ovarian
MALME-3M melanoma = system: MALME-3M melanoma
PC-3 prostate = system: PC-3 prostate
MDA-MB-231 breast = system: MDA-MB-231 breast
SR leukemia = system: SR leukemia
HCT-116 colon = system: HCT-116 colon
NCI/ADR-RES ovarian = system: NCI/ADR-RES ovarian
SK-MEL-5 melanoma = system: SK-MEL-5 melanoma
KM12 colon = system: KM12 colon
SN12C renal = system: SN12C renal
EKVX NSCLC = system: EKVX NSCLC
T-47D breast = system: T-47D breast
MOLT-4 leukemia = system: MOLT-4 leukemia
M14 melanoma = system: M14 melanoma
HT29 colon = system: HT29 colon
RXF 393 renal = system: RXF 393 renal
TK-10 renal = system: TK-10 renal
MDA-MB-435 = system: MDA-MB-435
SNB-75 CNS = system: SNB-75 CNS

Molecule `CCC(=O)OCC1OC(n2cnc3c(=S)nc(N)[nH]c32)C(OC(=O)CC)C1OC(=O)CC` (centres undefined) has a GI50 (SF-539 CNS) of 4.88 µM, a TGI (SF-539 CNS) of 52.1 µM and a GI50 (IGROV1 ovarian) of 7.49 µM. It also gave a TGI (IGROV1 ovarian) of 44.5 µM, a GI50 (MCF7 breast) of 3.57 µM and a TGI (MCF7 breast) of 41.7 µM. For the same molecule, the GI50 (OVCAR-4 ovarian) was 4.95 µM, the TGI (OVCAR-4 ovarian) was 81.3 µM and the GI50 (HCC-2998 colon) was 15.2 µM. For the same molecule, the TGI (HCC-2998 colon) was 73.1 µM, the GI50 (OVCAR-8 ovarian) was 7.1 µM and the TGI (OVCAR-8 ovarian) was greater than 100 µM. For the same molecule, the GI50 (SK-OV-3 ovarian) was 2.36 µM, the TGI (SK-OV-3 ovarian) was 14.5 µM and the GI50 (A498 renal) was 15.6 µM. For the same molecule, the TGI (A498 renal) was greater than 100 µM, the GI50 (NCI-H226 lung) was 2.62 µM and the TGI (NCI-H226 lung) was greater than 100 µM. For the same molecule, the GI50 (HCT-15 colon) was 9.39 µM, the TGI (HCT-15 colon) was greater than 100 µM and the GI50 (HS 578T breast) was 23.8 µM. The TGI (HS 578T breast) was greater than 100 µM, the GI50 (UACC-257 melanoma) was 35.4 µM and the TGI (UACC-257 melanoma) was greater than 100 µM. For the same molecule, the GI50 (SW-620 colon) was 16.3 µM, the TGI (SW-620 colon) was greater than 100 µM and the GI50 (LOX IMVI melanoma) was 2.17 µM. For the same molecule, the TGI (LOX IMVI melanoma) was greater than 100 µM, the GI50 (HOP-92 NSCLC) was 0.892 µM and the TGI (HOP-92 NSCLC) was 20.9 µM. For the same molecule, the GI50 (BT-549 breast) was 5.42 µM, the TGI (BT-549 breast) was greater than 100 µM and the GI50 (786-0 renal) was 8.09 µM. For the same molecule, the TGI (786-0 renal) was greater than 100 µM, the GI50 (CCRF-CEM leukemia) was 2.12 µM and the TGI (CCRF-CEM leukemia) was 28.2 µM. For the same molecule, the GI50 (NCI-H460 lung) was 6.62 µM, the TGI (NCI-H460 lung) was greater than 100 µM and the GI50 (SF-295 CNS) was 5.27 µM. For the same molecule, the TGI (SF-295 CNS) was greater than 100 µM, the GI50 (SK-MEL-28 melanoma) was 37.5 µM and the TGI (SK-MEL-28 melanoma) was greater than 100 µM. The GI50 (SK-MEL-2 melanoma) was 2.89 µM, the TGI (SK-MEL-2 melanoma) was 46.4 µM and the GI50 (K-562 leukemia) was 6.69 µM. For the same molecule, the TGI (K-562 leukemia) was greater than 100 µM, the GI50 (NCI-H522 lung) was 2.89 µM and the TGI (NCI-H522 lung) was 18.6 µM. It also gave a GI50 (DU-145 prostate) of 2.51 µM, a TGI (DU-145 prostate) of 47.7 µM and a GI50 (UO-31 renal) of 1.97 µM. For the same molecule, the TGI (UO-31 renal) was 54.2 µM, the GI50 (A549 NSCLC) was 71.8 µM and the TGI (A549 NSCLC) was greater than 100 µM. It also gave a GI50 (RPMI-8226 leukemia) of 3.79 µM, a TGI (RPMI-8226 leukemia) of 67.2 µM and a GI50 (U251 CNS) of 21.5 µM. The TGI (U251 CNS) was greater than 100 µM, the GI50 (CAKI-1 renal) was 3.52 µM and the TGI (CAKI-1 renal) was greater than 100 µM. The GI50 (ACHN renal) was 5.28 µM, the TGI (ACHN renal) was 93.1 µM and the GI50 (COLO 205 colon) was 3.57 µM. It also gave a TGI (COLO 205 colon) of 18.4 µM, a GI50 (UACC-62 melanoma) of 2.29 µM and a TGI (UACC-62 melanoma) of 14.4 µM. The GI50 (NCI-H23 lung) was 9.73 µM, the TGI (NCI-H23 lung) was greater than 100 µM and the GI50 (SNB-19 CNS) was 80.9 µM. The TGI (SNB-19 CNS) was greater than 100 µM, the GI50 (OVCAR-5 ovarian) was 9.15 µM and the TGI (OVCAR-5 ovarian) was greater than 100 µM. It also gave a GI50 (HOP-62 NSCLC) of 2.71 µM, a TGI (HOP-62 NSCLC) of 67.3 µM and a GI50 (SF-268 CNS) of 3.95 µM. It also gave a TGI (SF-268 CNS) greater than 100 µM, a GI50 (OVCAR-3 ovarian) of 3.03 µM and a TGI (OVCAR-3 ovarian) of 17.7 µM. For the same molecule, the GI50 (MALME-3M melanoma) was 2.45 µM, the TGI (MALME-3M melanoma) was greater than 100 µM and the GI50 (PC-3 prostate) was 5.2 µM. The TGI (PC-3 prostate) was greater than 100 µM, the GI50 (MDA-MB-231 breast) was 5.44 µM and the TGI (MDA-MB-231 breast) was greater than 100 µM. For the same molecule, the GI50 (SR leukemia) was 0.828 µM, the TGI (SR leukemia) was greater than 100 µM and the GI50 (HCT-116 colon) was 4.25 µM. It also gave a TGI (HCT-116 colon) greater than 100 µM, a GI50 (NCI/ADR-RES ovarian) of 14.8 µM and a TGI (NCI/ADR-RES ovarian) greater than 100 µM. The GI50 (SK-MEL-5 melanoma) was 13.9 µM, the TGI (SK-MEL-5 melanoma) was 34 µM and the GI50 (KM12 colon) was 6.06 µM. For the same molecule, the TGI (KM12 colon) was 44.4 µM, the GI50 (SN12C renal) was 12.4 µM and the TGI (SN12C renal) was greater than 100 µM. It also gave a GI50 (EKVX NSCLC) of 10.7 µM, a TGI (EKVX NSCLC) greater than 100 µM and a GI50 (T-47D breast) of 3.17 µM. The TGI (T-47D breast) was 43.8 µM, the GI50 (MOLT-4 leukemia) was 5.31 µM and the TGI (MOLT-4 leukemia) was greater than 100 µM. It also gave a GI50 (M14 melanoma) of 2.33 µM, a TGI (M14 melanoma) of 24.6 µM and a GI50 (HT29 colon) of 14.7 µM. It also gave a TGI (HT29 colon) greater than 100 µM, a GI50 (RXF 393 renal) of 6.06 µM and a TGI (RXF 393 renal) greater than 100 µM. The GI50 (TK-10 renal) was 3.63 µM, the TGI (TK-10 renal) was greater than 100 µM and the GI50 (MDA-MB-435) was 4.73 µM. For the same molecule, the TGI (MDA-MB-435) was greater than 100 µM, the GI50 (SNB-75 CNS) was 3 µM and the TGI (SNB-75 CNS) was 88.9 µM.
